Data taken from US10750742B2, “Pesticidally active pyrazole derivatives” (SYNGENTA PARTICIPATIONS AG, priority 2015, dated 2020).
Where two headings read alike, the source gives them in different places.

How the values were obtained:
Format in all cases: in vivo
Myzus persicae [1] = assay: Myzus persicae (green peach aphid), sunflower leaf disc spray test; details: foliar, 144 h
Procedure: (§1) Myzus persicae (Green Peach Aphid):
Sunflower leaf discs were placed on agar in a 24-well microtiter plate and sprayed with test solutions at an application rate of 200 ppm. After drying, the leaf discs were infested with an aphid population of mixed ages. After an incubation period of 6 DAT, samples were checked for mortality. The following compounds gave at least 80% mortality of Myzus persicae: compounds 1,2, 3, 4, 5, 6, 11, 12, 15, 17, 18, 19, 20, 23, 24, 25, 26, 27, 30, 32, 33, 34 35, 41, 43, 44, 47, 50, 55, 58, 59, 60, 61, 62, 63, 64, 65 and 66.

Tetranychus urticae = Tetranychus urticae (two-spotted spider mite), bean leaf disc test; details: foliar, 192 h, read-out: control (mortality on mixed population, mobile stages)
Procedure: Tetranychus urticae (Two-Spotted Spider Mite):
Bean leaf discs on agar in 24-well microtiter plates were sprayed with aqueous test solutions prepared from 10′000 ppm DMSO stock solutions. After drying the leaf discs were infested with a mite population of mixed ages. The samples were assessed for mortality on mixed population (mobile stages) 8 days after infestation.

Plutella xylostella = Plutella xylostella (diamond back moth), artificial diet test; details: 120 h, read-out: control (mortality and growth inhibition)
Procedure: Plutella xylostella (Diamond Back Moth):
(§2) 24-well microtiter plates with artificial diet were treated with aqueous test solutions prepared from 10′000 ppm DMSO stock solutions by pipetting. After drying, the plates were infested with L2 larvae (10 to 15 per well). The samples were assessed for mortality and growth inhibition in comparison to untreated samples 5 days after infestation.

Euschistus heros = Euschistus heros (neotropical brown stink bug), soybean leaf test; details: 120 h, read-out: effect in at least one of the two categories (mortality or growth inhibition); for percent effect (mortality or growth inhibition) at 200 ppm: application rate 200 ppm, N2 nymphs, 5 days after infestation
Procedure: Euschistus heros (Neotropical Brown Stink Bug):
Soybean leaves on agar in 24-well microtiter plates were sprayed with aqueous test solutions prepared from 10′000 ppm DMSO stock solutions. After drying the leaves were infested with N2 nymphs. The samples were assessed for mortality and growth inhibition in comparison to untreated samples 5 days after infestation.

Diabrotica balteata = Diabrotica balteata (corn root worm), maize sprout test; details: 96 h, read-out: control (mortality and growth inhibition)
Procedure: Diabrotica balteata, (Corn Root Worm)
as §2, with “Maize sprouts, placed on an agar layer in 24-well” for “24-well”, “plates” for “plates with artificial diet”, “spraying.” for “pipetting.”, “(6” for “(10”, “10” for “15”, “4” for “5”

Thrips tabaci = Thrips tabaci (onion thrips), sunflower leaf disc test; details: foliar, 144 h, read-out: control (mortality)
Procedure: Thrips tabaci (Onion Thrips):
Sunflower leaf discs were placed on agar in 24-well microtiter plates and sprayed with aqueous test solutions prepared from 10′000 ppm DMSO stock solutions. After drying the leaf discs were infested with a thrips population of mixed ages. The samples were assessed for mortality 6 days after infestation.

Spodoptera littoralis = Spodoptera littoralis (Egyptian cotton leaf worm), cotton leaf disc spray test; details: foliar, 72 h, read-out: control (at least one of mortality, anti-feedant effect, growth inhibition); for percent control (mortality, anti-feedant effect or growth inhibition) at 200 ppm: application rate 200 ppm, L1 larvae, 3 days after infestation
Procedure: Spodoptera littoralis (Egyptian Cotton Leaf Worm)
Cotton leaf discs were placed on agar in 24-well microtiter plates and sprayed with aqueous test solutions prepared from 10′000 ppm DMSO stock solutions. After drying the leaf discs were infested with five L1 larvae. The samples were assessed for mortality, anti-feedant effect, and growth inhibition in comparison to untreated samples 3 days after infestation. Control of Spodoptera littoralis by a test sample is when at least one of mortality, anti-feedant effect, and growth inhibition is higher than the untreated sample.

Myzus persicae [2] = assay: Myzus persicae (green peach aphid), sucrose solution / Parafilm test; details: 120 h, test rate of 12 ppm, sucrose solution, 5 days after infestation, read-out: mortality
Excerpt: as §1
Test compounds were applied by pipette into 24 well plates and mixed with Sucrose solution. Application rate: 12.5 ppm. The plates were closed with a stretched parafilm. A plastic stencil with 24 holes is placed onto the plate and infested pea seedlings were placed directly on the Parafilm. The infested plate is closed with a gel blotting paper and another plastic stencil and then turned upside down. 5 days after infestation the samples were checked on mortality.

[3] = application rate 200 ppm, mixed ages, 6 DAT, read-out: mortality
[4] = application rate 200 ppm, 8 days after infestation
[5] = application rate 200 ppm, L2 larvae, 5 days after infestation
[6] = application rate 200 ppm, L2 larvae, 4 days after infestation
[7] = application rate 200 ppm, mixed ages, 6 days after infestation

Cn1nc(OC(F)(F)C(F)Br)c(C(F)(F)F)c1-n1cc(-c2ccc(Cl)c(C(=O)NC3CC3)c2)cn1 (stereo not drawn) [compound 43]
≥ 80%: mortality at 200 ppm (Myzus persicae [1]; [3]) | mortality at 200 ppm (Tetranychus urticae; [4]) | mortality at 200 ppm (Plutella xylostella; [5]) | percent effect (mortality or growth inhibition) at 200 ppm (Euschistus heros) | mortality at 200 ppm (Diabrotica balteata; [6]) | mortality at 200 ppm (Thrips tabaci; [7]) | percent control (mortality, anti-feedant effect or growth inhibition) at 200 ppm (Spodoptera littoralis)

Cn1nc(OC(F)(F)C(F)Cl)c(C(F)(F)F)c1-n1cc(-c2ccc(Cl)c(C(=O)NC3(C#N)CC3)c2)cn1 (stereo not drawn) [compound 44]
≥ 80%: mortality at 200 ppm (Myzus persicae [1]; [3]) | mortality at 200 ppm (Tetranychus urticae; [4]) | percent effect (mortality or growth inhibition) at 200 ppm (Euschistus heros) | mortality at 200 ppm (Diabrotica balteata; [6]) | mortality at 12 ppm (Myzus persicae [2]) | mortality at 200 ppm (Thrips tabaci; [7])

Cn1nc(OC(F)=C(F)C(F)(F)F)c(C(F)(F)F)c1-n1cc(-c2ccc(Cl)c(C(=O)NC3CC3)c2)cn1 [compound 53]
≥ 80%: mortality at 200 ppm (Tetranychus urticae; [4]) | mortality at 200 ppm (Plutella xylostella; [5]) | percent effect (mortality or growth inhibition) at 200 ppm (Euschistus heros) | mortality at 200 ppm (Diabrotica balteata; [6]) | mortality at 12 ppm (Myzus persicae [2]) | mortality at 200 ppm (Thrips tabaci; [7]) | percent control (mortality, anti-feedant effect or growth inhibition) at 200 ppm (Spodoptera littoralis)

Cc1ccc(-c2cnn(-c3c(C(F)(F)F)c(OC(F)(F)C(F)C(F)(F)F)nn3C)c2)cc1C(=O)NC1CC1 (stereo not drawn) [compound 58]
≥ 80%: mortality at 200 ppm (Myzus persicae [1]; [3]) | mortality at 200 ppm (Tetranychus urticae; [4]) | mortality at 200 ppm (Plutella xylostella; [5]) | mortality at 200 ppm (Diabrotica balteata; [6]) | mortality at 12 ppm (Myzus persicae [2]) | mortality at 200 ppm (Thrips tabaci; [7]) | percent control (mortality, anti-feedant effect or growth inhibition) at 200 ppm (Spodoptera littoralis)

Cn1nc(OC(F)(F)C(F)OC(F)(F)F)c(C(F)(F)F)c1-n1cc(-c2cnc(Cl)c(C(=O)NC3(C#N)CC3)c2)cn1 (stereo not drawn) [compound 61]
≥ 80%: mortality at 200 ppm (Myzus persicae [1]; [3]) | mortality at 200 ppm (Tetranychus urticae; [4]) | mortality at 200 ppm (Plutella xylostella; [5]) | percent effect (mortality or growth inhibition) at 200 ppm (Euschistus heros) | mortality at 200 ppm (Diabrotica balteata; [6]) | mortality at 200 ppm (Thrips tabaci; [7]) | percent control (mortality, anti-feedant effect or growth inhibition) at 200 ppm (Spodoptera littoralis)

Cn1nc(OC(F)(F)C(F)OC(F)(F)F)c(C(F)(F)F)c1-n1cc(-c2cnc(Cl)c(C(=O)NC3CC3)c2)cn1 (stereo not drawn) [compound 62]
≥ 80%: mortality at 200 ppm (Myzus persicae [1]; [3]) | mortality at 200 ppm (Tetranychus urticae; [4]) | mortality at 200 ppm (Plutella xylostella; [5]) | percent effect (mortality or growth inhibition) at 200 ppm (Euschistus heros) | mortality at 200 ppm (Diabrotica balteata; [6]) | mortality at 200 ppm (Thrips tabaci; [7]) | percent control (mortality, anti-feedant effect or growth inhibition) at 200 ppm (Spodoptera littoralis)

Cn1nc(SC(F)(F)F)c(Br)c1-n1cc(-c2ccc(Cl)c(C(=O)NC3CC3)c2)cn1 [compound 63]
≥ 80%: mortality at 200 ppm (Myzus persicae [1]; [3]) | mortality at 200 ppm (Tetranychus urticae; [4]) | mortality at 200 ppm (Plutella xylostella; [5]) | percent effect (mortality or growth inhibition) at 200 ppm (Euschistus heros) | mortality at 200 ppm (Diabrotica balteata; [6]) | mortality at 200 ppm (Thrips tabaci; [7]) | percent control (mortality, anti-feedant effect or growth inhibition) at 200 ppm (Spodoptera littoralis)

Cn1nc(SC(F)(F)C(F)(F)C(F)(F)F)c(Br)c1-n1cc(-c2ccc(Cl)c(C(=O)NC3CC3)c2)cn1 [compound 64]
≥ 80%: mortality at 200 ppm (Myzus persicae [1]) | mortality at 200 ppm (Tetranychus urticae) | mortality at 200 ppm (Plutella xylostella) | percent control (mortality or growth inhibition) at 200 ppm (Euschistus heros) | mortality at 200 ppm (Diabrotica balteata) | mortality at 200 ppm (Thrips tabaci) | mortality at 200 ppm (Spodoptera littoralis)

Cn1nc(OC(F)(F)C(F)C(F)(F)F)c(C(F)(F)F)c1-n1cc(-c2cnc(Cl)c(C(=O)NC3(C#N)CC3)c2)cn1 (stereo not drawn) [compound 65]
≥ 80%: mortality at 200 ppm (Myzus persicae [1]; [3]) | mortality at 200 ppm (Tetranychus urticae; [4]) | mortality at 200 ppm (Plutella xylostella; [5]) | percent effect (mortality or growth inhibition) at 200 ppm (Euschistus heros) | mortality at 200 ppm (Diabrotica balteata; [6]) | mortality at 200 ppm (Thrips tabaci; [7])

Cn1nc(OC(F)(F)C(F)C(F)(F)F)c(C(F)(F)F)c1-n1cc(-c2cnc(Cl)c(C(=O)NC3CC3)c2)cn1 (stereo not drawn) [compound 66]
≥ 80%: mortality at 200 ppm (Myzus persicae [1]; [3]) | mortality at 200 ppm (Tetranychus urticae; [4]) | mortality at 200 ppm (Plutella xylostella; [5]) | percent effect (mortality or growth inhibition) at 200 ppm (Euschistus heros) | mortality at 200 ppm (Thrips tabaci; [7])
